According to patent publication US20070287699A1, “ANTIVIRAL AGENTS” (ViroBay, Inc., priority 2006, published 2007):

Test system: HCV replicon RNA replication in human Huh7 hepatoma cells
Assay: HCV replicon assay (activity levels from either or both of HCV replicon assay 1, Huh7/Clone A RT-qPCR, and assay 2, Huh7 ET luc-ubi-neo/ET)
Format: cell-based, Hepatitis C virus (HCV)
Details: Hepatitis C virus, Huh-7, either or both HCV replicon assays: Huh7/Clone A, 48 hours, 72 hours, Luc activity or RT-PCR, read-out: inhibit HCV replication at IC50 levels or estimated IC50 levels
Outline: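 Huh7/Clone A subgenomic replicon cells treated 48 h at 37° C. with 7 serial dilutions in triplicate (0.5% DMSO final). Replicon RNA measured by TaqMan RT-qPCR on the neo gene, normalized to RiboGreen total RNA; untreated cells set as 100% for IC50.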

SMILES	IC50
CN1CCN(c2cc3c(cc2F)c(=O)c(-c2noc(C(CC(N)=O)c4ccccc4)n2)cn3Cc2ccc(Cl)cc2)CC1 (stereo not drawn) [Compound 60, 3-{3-[1-(4-chloro-benzyl)-6-fluoro-7-(4-methyl-piperazin-1-yl)-4-oxo-1,4-dihydro-quinolin-3-yl]-[1,2,4]oxadiazol-5-yl}-3-phenyl-propionamide]	> 10 µM
O=C(O)Cc1ccc2c(c1)c(=O)c(-c1noc(Cc3ccccc3)n1)cn2Cc1ccc(C(F)(F)F)cc1F [Compound 76, [3-(5-benzyl-[1,2,4]oxadiazol-3-yl)-1-(2-fluoro-4-trifluoromethyl-benzyl)-4-oxo-1,4-dihydro-quinolin-6-yl]-acetic acid]	> 10 µM
CN1CCN(c2cc3c(cc2F)c(=O)c(-c2noc(Cc4ccccc4)n2)cn3Cc2ccc(C(F)(F)F)cc2)CC1 [Compound 36, 3-(5-benzyl-[1,2,4]oxadiazol-3-yl)-6-fluoro-7-(4-methyl-piperazin-1-yl)-1-(4-trifluoromethyl-benzyl)-1H-quinolin-4-one]	< 2 µM
CN1CCN(c2cc3c(cc2F)c(=O)c(-c2noc(Cc4ccc(F)cc4)n2)cn3Cc2ccc(Cl)cc2F)CC1 [Compound 34, 1-(4-chloro-2-fluoro-benzyl)-6-fluoro-3-[5-(4-fluoro-benzyl)-[1,2,4]oxadiazol-3-yl]-7-(4-methyl-piperazin-1-yl)-1H-quinolin-4-one]	< 2 µM
CN1CCN(c2cc3c(cc2F)c(=O)c(-c2noc(Cc4ccc(F)cc4)n2)cn3Cc2ccc(F)cc2F)CC1 [Compound 44, 1-(2,4-difluoro-benzyl)-6-fluoro-3-[5-(4-fluoro-benzyl)-[1,2,4]oxadiazol-3-yl]-7-(4-methyl-piperazin-1-yl)-1H-quinolin-4-one]	< 2 µM
CN1CCN(c2cc3c(cc2F)c(=O)c(-c2noc(Cc4ccccc4)n2)cn3Cc2c(F)cccc2F)CC1 [Compound 48, 3-(5-benzyl-[1,2,4]oxadiazol-3-yl)-1-(2,6-difluoro-benzyl)-6-fluoro-7-(4-methyl-piperazin-1-yl)-1H-quinolin-4-one]	< 10 µM
O=c1c(-c2nc(Cc3ccc(F)cc3)no2)cn(Cc2ccc(C(F)(F)F)cc2)c2cc(N3CCOCC3)c(F)cc12 [Compound 172, 6-fluoro-3-(3-(4-fluorobenzyl)-1,2,4-oxadiazol-5-yl)-7-morpholino-1-(4-(trifluoromethyl)benzyl)quinolin-4(1H)-one]	> 10 µM
COc1cc2c(=O)c(-c3nnc(Cc4ccc(Cl)cc4)o3)cn(CC3CCCCC3)c2cc1OC [Compound 163, 3-[5-(4-chloro-benzyl)-[1,3,4]oxadiazol-2-yl]-1-cyclohexylmethyl-6,7-dimethoxy-1H-quinolin-4-one]	> 10 µM
COc1cc2c(=O)c(-c3noc(CC4CCCCC4)n3)cn(Cc3ccc(Cl)cc3)c2cc1OC [Compound 5, 1-(4-chloro-benzyl)-3-(5-cyclohexylmethyl-[1,2,4]oxadiazol-3-yl)-6,7-dimethoxy-1H-quinolin-4-one]	> 10 µM
CC(C)Cc1nc(-c2cn(CC3CCCCC3)c3cc(N4CCN(C)CC4)c(F)cc3c2=O)no1 [Compound 13, 1-cyclohexylmethyl-6-fluoro-3-(5-isobutyl-[1,2,4]oxadiazol-3-yl)-7-(4-methyl-piperazin-1-yl)-1H-quinolin-4-one]	> 10 µM
CN1CCN(c2cc3c(cc2F)c(=O)c(-c2noc(Cc4ccccc4)n2)cn3CCc2ccccc2)CC1 [Compound 79, 3-(5-benzyl-[1,2,4]oxadiazol-3-yl)-6-fluoro-7-(4-methyl-piperazin-1-yl)-1-phenethyl-1H-quinolin-4-one]	> 10 µM
CN1CCN(c2cc3c(cc2F)c(=O)c(-c2noc(Cc4ccccc4CC(=O)O)n2)cn3Cc2ccc(Cl)cc2)CC1 [Compound 22, (2-{3-[1-(4-chloro-benzyl)-6-fluoro-7-(4-methyl-piperazin-1-yl)-4-oxo-1,4-dihydro-quinolin-3-yl]-[1,2,4]oxadiazol-5-ylmethyl}-phenyl)-acetic acid]	> 10 µM
COc1cc2c(=O)c(-c3noc(CC4CCCC4)n3)cn(Cc3ccc(Cl)cc3)c2cc1OC [Compound 7, 1-(4-chloro-benzyl)-3-(5-cyclopentylmethyl-[1,2,4]oxadiazol-3-yl)-6,7-dimethoxy-1H-quinolin-4-one]	> 10 µM
O=C(O)c1ccc2c(c1)c(=O)c(-c1noc(Cc3ccccc3)n1)cn2Cc1ccc(C(F)(F)F)cc1F [Compound 43, 3-(5-benzyl-[1,2,4]oxadiazol-3-yl)-1-(2-fluoro-4-trifluoromethyl-benzyl)-4-oxo-1,4-dihydro-quinoline-6-carboxylic acid]	> 10 µM
CC(C)(c1ccccc1)c1nc(-c2cn(Cc3ccc(C(F)(F)F)cc3)c3cc(N4CC[S+]([O-])CC4)c(F)cc3c2=O)no1 [Compound 129]	< 0.5 µM
CN1CCN(c2cc3c(cc2F)c(=O)c(-c2noc(C4(c5ccccc5)CC4)n2)cn3Cc2ccc(C(F)(F)F)cc2F)CC1 [Compound 78, 6-fluoro-1-(2-fluoro-4-trifluoromethyl-benzyl)-7-(4-methyl-piperazin-1-yl)-3-[5-(1-phenyl-cyclopropyl)-[1,2,4]oxadiazol-3-yl]-1H-quinolin-4-one]	< 2 µM
CN1CCN(c2cc3c(cc2F)c(=O)c(-c2noc(Cc4ccc(F)cc4)n2)cn3Cc2ccc(C(F)(F)F)cc2F)CC1 [Compound 23, 6-fluoro-3-[5-(4-fluoro-benzyl)-[1,2,4]oxadiazol-3-yl]-1-(2-fluoro-4-trifluoromethyl-benzyl)-7-(4-methyl-piperazin-1-yl)-1H-quinolin-4-one]	< 2 µM
CN1CCN(c2cc3c(cc2F)c(=O)c(-c2noc(C(CC#N)c4ccccc4)n2)cn3Cc2ccc(Cl)cc2)CC1 (stereo not drawn) [Compound 53, 3-{3-[1-(4-chloro-benzyl)-6-fluoro-7-(4-methyl-piperazin-1-yl)-4-oxo-1,4-dihydro-quinolin-3-yl]-[1,2,4]oxadiazol-5-yl}-3-phenyl-propionitrile]	< 10 µM
CC(C)(c1ccc(F)cc1)c1nnc(-c2cn(Cc3ccc(C(F)(F)F)cc3)c3cc(N4CCOCC4)c(F)cc3c2=O)o1 [Compound 161, 6-fluoro-3-(5-(2-(4-fluorophenyl)propan-2-yl)-1,3,4-oxadiazol-2-yl)-7-morpholino-1-(4-(trifluoromethyl)benzyl)quinolin-4(1H)-one]	< 2 µM
O=c1c(-c2ncc(Cc3ccccc3)o2)cn(Cc2ccc(Cl)cc2)c2ccc(OCCCN3CCOCC3)cc12 [Compound 176, 3-(5-benzyl-oxazol-2-yl)-1-(4-chloro-benzyl)-6-(3-morpholin-4-yl-propoxy)-1H-quinolin-4-one]	< 10 µM
CN1CCN(c2cc3c(cc2F)c(=O)c(-c2noc(C(CCCC#N)c4ccccc4)n2)cn3Cc2ccc(Cl)cc2)CC1 (stereo not drawn) [Compound 63, 5-{3-[1-(4-chloro-benzyl)-6-fluoro-7-(4-methyl-piperazin-1-yl)-4-oxo-1,4-dihydro-quinolin-3-yl]-[1,2,4]oxadiazol-5-yl}-5-phenyl-pentanenitrile]	< 2 µM
O=c1c(-c2noc(Cc3ccccc3)n2)cn(Cc2ccc(Cl)cc2)c2cc(N3CCNCC3)c(F)cc12 [Compound 25, 3-(5-benzyl-[1,2,4]oxadiazol-3-yl)-1-(4-chloro-benzyl)-6-fluoro-7-piperazin-1-yl-1H-quinolin-4-one]	< 2 µM
COc1cc2c(=O)c(-c3noc(Cc4ccccn4)n3)cn(Cc3ccc(Cl)cc3)c2cc1OC [Compound 3, 1-(4-chloro-benzyl)-6,7-dimethoxy-3-(5-pyridin-2-ylmethyl-[1,2,4]oxadiazol-3-yl)-1H-quinolin-4-one]	> 10 µM
CN1CCN(c2cc3c(cc2F)c(=O)c(-c2noc(Cc4ccc(F)cc4)n2)cn3Cc2ccc(Cl)cc2)CC1 [Compound 28, 1-(4-chloro-benzyl)-6-fluoro-3-[5-(4-fluoro-benzyl)-[1,2,4]oxadiazol-3-yl]-7-(4-methyl-piperazin-1-yl)-1H-quinolin-4-one]	< 2 µM
CN1CCN(c2cc3c(cc2F)c(=O)c(-c2noc(Cc4ccc(F)cc4)n2)cn3CCN2CCOCC2)CC1 [Compound 58, 6-fluoro-3-[5-(4-fluoro-benzyl)-[1,2,4]oxadiazol-3-yl]-7-(4-methyl-piperazin-1-yl)-1-(2-morpholin-4-yl-ethyl)-1H-quinolin-4-one]	> 10 µM
CC(=O)N1CCN(c2cc3c(cc2F)c(=O)c(-c2noc(Cc4ccccc4)n2)cn3Cc2ccc(Cl)cc2)CC1 [Compound 27, 7-(4-acetyl-piperazin-1-yl)-3-(5-benzyl-[1,2,4]oxadiazol-3-yl)-1-(4-chloro-benzyl)-6-fluoro-1H-quinolin-4-one]	< 2 µM
N#CCCCC(c1ccccc1)c1nc(-c2cn(Cc3ccc(C(F)(F)F)cc3F)c3ccccc3c2=O)no1 (stereo not drawn) [Compound 95, 5-{3-[1-(2-fluoro-4-trifluoromethyl-benzyl)-4-oxo-1,4-dihydro-quinolin-3-yl]-[1,2,4]oxadiazol-5-yl}-5-phenyl-pentanenitrile]	> 10 µM
CC(C)(c1ccc(F)cc1)c1noc(-c2cn(Cc3ccc(C(F)(F)F)cc3)c3cc(N4CCOCC4)c(F)cc3c2=O)n1 [Compound 173, 6-fluoro-3-(3-(2-(4-fluorophenyl)propan-2-yl)-1,2,4-oxadiazol-5-yl)-7-morpholino-1-(4-(trifluoromethyl)benzyl)quinolin-4(1H)-one]	> 10 µM
CN1CCN(c2cc3c(cc2F)c(=O)c(-c2noc(Cc4ccc(F)cc4)n2)cn3Cc2ccc(Cl)nc2)CC1 [Compound 64, 1-(6-chloro-pyridin-3-ylmethyl)-6-fluoro-3-[5-(4-fluoro-benzyl)-[1,2,4]oxadiazol-3-yl]-7-(4-methyl-piperazin-1-yl)-1H-quinolin-4-one]	< 10 µM
CN1CCN(c2cc3c(cc2F)c(=O)c(-c2nnc(Cc4ccccc4)o2)cn3Cc2ccc(C(F)(F)F)cc2F)CC1 [Compound 165, 3-(5-benzyl-[1,3,4]oxadiazol-2-yl)-1-(4-(2-fluoro-4-trifluormethyl)-benzyl)-6-fluoro-7-(4-methyl-piperazin-1-yl)-1H-quinolin-4-one]	< 2 µM
